Measurements reported in PubChem BioAssay (NCI).
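Step 1: Grow cells in 96-well plates. Step 2: Expose to compound for 48 hours at 5 concentrations. Step 3: Interpolate endpoints linearly; if unreached, use highest concentration. TGI marks complete inhibition of growth.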

How the values were obtained:
Assay in all cases: NCI-60 cell line screen, 48 h
SK-MEL-2 melanoma = tested on: SK-MEL-2 melanoma
SW-620 colon = tested on: SW-620 colon
HCT-116 colon = tested on: HCT-116 colon
BT-549 breast = tested on: BT-549 breast
MDA-N = tested on: MDA-N
OVCAR-4 ovarian = tested on: OVCAR-4 ovarian
HT29 colon = tested on: HT29 colon
EKVX NSCLC = tested on: EKVX NSCLC
SK-MEL-5 melanoma = tested on: SK-MEL-5 melanoma
HS 578T breast = tested on: HS 578T breast
HCT-15 colon = tested on: HCT-15 colon
T-47D breast = tested on: T-47D breast
OVCAR-8 ovarian = tested on: OVCAR-8 ovarian
SN12C renal = tested on: SN12C renal
UO-31 renal = tested on: UO-31 renal
ACHN renal = tested on: ACHN renal
U251 CNS = tested on: U251 CNS
UACC-62 melanoma = tested on: UACC-62 melanoma
SF-539 CNS = tested on: SF-539 CNS
IGROV1 ovarian = tested on: IGROV1 ovarian
UACC-257 melanoma = tested on: UACC-257 melanoma
SF-295 CNS = tested on: SF-295 CNS
K-562 leukemia = tested on: K-562 leukemia
NCI-H522 lung = tested on: NCI-H522 lung
MALME-3M melanoma = tested on: MALME-3M melanoma
OVCAR-5 ovarian = tested on: OVCAR-5 ovarian
A498 renal = tested on: A498 renal
MDA-MB-435 = tested on: MDA-MB-435
SNB-19 CNS = tested on: SNB-19 CNS
CCRF-CEM leukemia = tested on: CCRF-CEM leukemia
NCI-H460 lung = tested on: NCI-H460 lung
NCI/ADR-RES ovarian = tested on: NCI/ADR-RES ovarian
SR leukemia = tested on: SR leukemia
SK-OV-3 ovarian = tested on: SK-OV-3 ovarian
RPMI-8226 leukemia = tested on: RPMI-8226 leukemia
LOX IMVI melanoma = tested on: LOX IMVI melanoma
MDA-MB-231 breast = tested on: MDA-MB-231 breast
HOP-92 NSCLC = tested on: HOP-92 NSCLC
OVCAR-3 ovarian = tested on: OVCAR-3 ovarian
NCI-H226 lung = tested on: NCI-H226 lung
M14 melanoma = tested on: M14 melanoma
SK-MEL-28 melanoma = tested on: SK-MEL-28 melanoma
HOP-62 NSCLC = tested on: HOP-62 NSCLC
HL-60(TB) leukemia = tested on: HL-60(TB) leukemia
HCC-2998 colon = tested on: HCC-2998 colon
KM12 colon = tested on: KM12 colon
PC-3 prostate = tested on: PC-3 prostate
MCF7 breast = tested on: MCF7 breast
SF-268 CNS = tested on: SF-268 CNS
CAKI-1 renal = tested on: CAKI-1 renal
A549 NSCLC = tested on: A549 NSCLC
RXF 393 renal = tested on: RXF 393 renal
786-0 renal = tested on: 786-0 renal
TK-10 renal = tested on: TK-10 renal
COLO 205 colon = tested on: COLO 205 colon
NCI-H23 lung = tested on: NCI-H23 lung
DU-145 prostate = tested on: DU-145 prostate
SNB-75 CNS = tested on: SNB-75 CNS
MOLT-4 leukemia = tested on: MOLT-4 leukemia

SMILES: c1nnc(NCNc2nncs2)s1
- TGI (SK-MEL-2 melanoma): > 100 µM
- TGI (SW-620 colon): > 100 µM
- TGI (HCT-116 colon): > 100 µM
- TGI (BT-549 breast): > 100 µM
- TGI (MDA-N): > 100 µM
- TGI (OVCAR-4 ovarian): > 100 µM
- TGI (HT29 colon): > 100 µM
- TGI (EKVX NSCLC): > 100 µM
- TGI (SK-MEL-5 melanoma): > 100 µM
- TGI (HS 578T breast): > 100 µM
- TGI (HCT-15 colon): > 100 µM
- TGI (T-47D breast): > 100 µM
- TGI (OVCAR-8 ovarian): > 100 µM
- TGI (SN12C renal): > 100 µM
- TGI (UO-31 renal): > 100 µM
- TGI (ACHN renal): > 100 µM
- TGI (U251 CNS): > 100 µM
- TGI (UACC-62 melanoma): > 100 µM
- TGI (SF-539 CNS): > 100 µM
- TGI (IGROV1 ovarian): > 100 µM
- TGI (UACC-257 melanoma): > 100 µM
- TGI (SF-295 CNS): > 100 µM
- TGI (K-562 leukemia): > 100 µM
- TGI (NCI-H522 lung): > 100 µM
- TGI (MALME-3M melanoma): > 100 µM
- TGI (OVCAR-5 ovarian): > 100 µM
- TGI (A498 renal): > 100 µM
- TGI (MDA-MB-435): > 100 µM
- TGI (SNB-19 CNS): > 100 µM
- TGI (CCRF-CEM leukemia): > 100 µM
- TGI (NCI-H460 lung): 83.6 µM
- TGI (NCI/ADR-RES ovarian): > 100 µM
- TGI (SR leukemia): > 100 µM
- TGI (SK-OV-3 ovarian): > 100 µM
- TGI (RPMI-8226 leukemia): > 100 µM
- TGI (LOX IMVI melanoma): > 100 µM
- TGI (MDA-MB-231 breast): > 100 µM
- TGI (HOP-92 NSCLC): > 100 µM
- TGI (OVCAR-3 ovarian): > 100 µM
- TGI (NCI-H226 lung): > 100 µM
- TGI (M14 melanoma): > 100 µM
- TGI (SK-MEL-28 melanoma): > 100 µM
- TGI (HOP-62 NSCLC): > 100 µM
- TGI (HL-60(TB) leukemia): > 100 µM
- TGI (HCC-2998 colon): 84.2 µM
- TGI (KM12 colon): > 100 µM
- TGI (PC-3 prostate): > 100 µM
- TGI (MCF7 breast): > 100 µM
- TGI (SF-268 CNS): > 100 µM
- TGI (CAKI-1 renal): > 100 µM
- TGI (A549 NSCLC): > 100 µM
- TGI (RXF 393 renal): > 100 µM
- TGI (786-0 renal): > 100 µM
- TGI (TK-10 renal): > 100 µM
- TGI (COLO 205 colon): > 100 µM
- TGI (NCI-H23 lung): > 100 µM
- TGI (DU-145 prostate): > 100 µM
- TGI (SNB-75 CNS): > 100 µM
- TGI (MOLT-4 leukemia): > 100 µM

SMILES: CSc1cc(N)ccc1N=Nc1ccc(S(N)(=O)=O)cc1
- TGI (SK-MEL-2 melanoma): 62.3 µM
- TGI (SW-620 colon): > 100 µM
- TGI (HCT-116 colon): > 100 µM
- TGI (BT-549 breast): 36.4 µM
- TGI (MDA-N): > 100 µM
- TGI (OVCAR-4 ovarian): > 100 µM
- TGI (HT29 colon): > 100 µM
- TGI (EKVX NSCLC): > 100 µM
- TGI (SK-MEL-5 melanoma): 30.6 µM
- TGI (HS 578T breast): 73.9 µM
- TGI (HCT-15 colon): 62.9 µM
- TGI (T-47D breast): 58.3 µM
- TGI (OVCAR-8 ovarian): 53.6 µM
- TGI (SN12C renal): > 100 µM
- TGI (UO-31 renal): 56.1 µM
- TGI (ACHN renal): 93 µM
- TGI (U251 CNS): > 100 µM
- TGI (UACC-62 melanoma): 32 µM
- TGI (SF-539 CNS): 93.7 µM
- TGI (IGROV1 ovarian): 72.3 µM
- TGI (UACC-257 melanoma): > 100 µM
- TGI (SF-295 CNS): 56.6 µM
- TGI (K-562 leukemia): > 100 µM
- TGI (NCI-H522 lung): 43.7 µM
- TGI (MALME-3M melanoma): 84.4 µM
- TGI (OVCAR-5 ovarian): > 100 µM
- TGI (A498 renal): > 100 µM
- TGI (MDA-MB-435): 97.4 µM
- TGI (SNB-19 CNS): > 100 µM
- TGI (CCRF-CEM leukemia): 84.5 µM
- TGI (NCI-H460 lung): 71.6 µM
- TGI (NCI/ADR-RES ovarian): 91.2 µM
- TGI (SR leukemia): > 100 µM
- TGI (SK-OV-3 ovarian): > 100 µM
- TGI (RPMI-8226 leukemia): 38.4 µM
- TGI (LOX IMVI melanoma): > 100 µM
- TGI (MDA-MB-231 breast): 57.9 µM
- TGI (HOP-92 NSCLC): 68.2 µM
- TGI (OVCAR-3 ovarian): 68.5 µM
- TGI (NCI-H226 lung): 50.4 µM
- TGI (M14 melanoma): > 100 µM
- TGI (SK-MEL-28 melanoma): > 100 µM
- TGI (HOP-62 NSCLC): 79 µM
- TGI (HL-60(TB) leukemia): 82.8 µM
- TGI (HCC-2998 colon): > 100 µM
- TGI (KM12 colon): 92.2 µM
- TGI (PC-3 prostate): > 100 µM
- TGI (MCF7 breast): > 100 µM
- TGI (SF-268 CNS): > 100 µM
- TGI (CAKI-1 renal): > 100 µM
- TGI (A549 NSCLC): 71.2 µM
- TGI (RXF 393 renal): > 100 µM
- TGI (786-0 renal): 76.8 µM
- TGI (TK-10 renal): 72 µM
- TGI (COLO 205 colon): 71.3 µM
- TGI (NCI-H23 lung): > 100 µM
- TGI (DU-145 prostate): > 100 µM
- TGI (SNB-75 CNS): 59.8 µM
- TGI (MOLT-4 leukemia): > 100 µM
